Reference: US20230033911A1, “BIOACTIVE COMPOSITIONS AND METHODS OF USE THEREOF” (Ingenious Ingredients, LP, priority 2021, published 2023)

Legend:
Format in all cases: in vivo
Swiss Albino mice [1] = experiment: Force swim test, paraxanthine plus taurine study (Example 3); conditions: 30 min force swim on 28th day; oral once a day for 28 days; n=8
Procedure: (§1) Twenty-four 8-week-old male Swiss Albino mice were housed in an animal room at a constant temperature (22±3° C.) and humidity (30%-70%) under a 12:12 h light-dark cycle with standard laboratory diet (Purina 5L79, Rat and Mouse 18% protein; PMI Nutrition International, Brentwood, Mo., USA). Distilled water was provided ad libitum. All animal experiments were reviewed and approved by the Institutional Animal Ethical Committee (IAEC) of Radiant Research Services Pvt. Ltd (Bangalore, India). All research was conducted in accordance with the guidelines of the committee for the purpose of control and supervision of experiments on animals.
(§2) After one week of acclimation, the animals were randomly divided by body weight into three groups (n=8 per group in each test) for oral treatment once a day, at approximately same time each day (±1 hour), for 28 consecutive days: (1) paraxanthine or (2) taurine or (3) taurine plus paraxanthine. The dose administered to the mice was calculated using US Food and Drug Administration for human equivalence doses (HED), assuming a human weight of 60 kg. The following HED was used in this study: 100 mg paraxanthine (ENFINITY®, Ingenious Ingredients, L.P Lewisville, Tex., USA; mouse dose: 20.5 mg/kg bw/day) or 500 mg taurine (mouse dose: 102.75 mg/kg bw/day), or 500 mg taurine (mouse dose: 102.75 mg/kg bw/day) plus 100 mg paraxanthine (ENFINITY®, Ingenious Ingredients, L.P Lewisville, Tex., USA; mouse dose: 20.5 mg/kg bw/day). 0.5% Carboxy Methyl Cellulose sodium was used as vehicle and the test item formulations were prepared daily. Dosing was conducted via oral gavage using disposable polypropylene syringes with sterilized stainless steel gavage tubes. Food intake was monitored daily while water intake was ad libitum.
During treatment period, training was accomplished on a swimming chamber at a moderate room temperature for 15 mins. The animals were adapted to this procedure daily 1 hr after dosing for 5 days in a week during the treatment period. On 28th day of respective treatment of all the animals were subjected to force swim test. Animals were forced to swim individually for 30 min in a glass jar of height 20 cm, diameter 10 cm, and filled with fresh water to a depth of 15 cm at room temperature. The parameter measured was total time spent in active swimming (the total duration during which the animal swims throughout the experimental period) and duration of immobility (the total time during which the animal is immobile).

Swiss Albino mice [2] = experiment: Force swim test, paraxanthine plus tyrosine study (Example 2); conditions: oral once a day for 28 days; for Duration of mobility/active swimming: 30 min force swim on 28th day, n=8
Procedure: as §1, with “Thirty-two” for “Twenty-four”
as §2, with “four” for “three”, “(1) vehicle control or (2)” for “(1)”, “(3) tyrosine” for “(2) taurine”, “(4) tyrosine” for “(3) taurine”, “tyrosine” for “taurine”
During treatment period, training was accomplished on a swimming chamber at a moderate room temperature for 15 mins. […] The parameters measured were total time spent in active swimming (the total duration during which the animal swims throughout the experimental period).

Swiss Albino mice [3] = experiment: Cook's pole climbing test after scopolamine-induced amnesia; conditions: for Escape latency: Cook's pole climbing test, scopolamine i.p., n=8; for Escape latency, faster than control: relative to vehicle control
Procedure: Behavioral studies were conducted in mice to examine the learning and memory ability by using Cook's pole test.
as §1, with “Thirty-two” for “Twenty-four”
as §2, with “four” for “three”, “7” for “28”, “(1) vehicle control or (2)” for “(1)”, “(3) tyrosine” for “(2) taurine”, “(4) tyrosine” for “(3) taurine”, “tyrosine” for “taurine”
Mice were trained in such a way that the animal had to climb the pole (shock free zone) within 30 seconds to avoid a shock. The shock was preceded by a buzzer that lasted for 15 seconds. The animals were trained to climb the pole at the sound of the buzzer (conditioned avoidance response). At particular intervals, 20 trials were given for each animal and average of the shock avoidance and mistakes were recorded. Trained animals were assayed by conditioned avoidance responses.
Amnesia was induced by using the scopolamine injection. Scopolamine is an anti-cholinergic and is an attractive amnesic agent for discerning the action of candidate anti amnesic drugs. Scopolamine is a non-selective post synaptic muscarinic receptor blocker and can cause cognitive impairments in rodents and humans via decreasing the effectiveness of ACH in the CNS in animals and humans. Scopolamine can induce the significant deficits in cognitive performance on behavioral tests which makes it a valid pharmacological model for inducing cognitive deficits. In this study to evaluate the cognitive effect, the mice were injected with scopolamine intraperitoneally to induce memory deficits.

Swiss Albino mice [4] = experiment: Forelimb grip strength test; conditions: oral once a day for 28 days; measured on day 0 and day 28, one hour after treatment
Procedure: as §1, with “Thirty-two” for “Twenty-four”
After one week of acclimation, the animals were randomly divided by body weight into four groups (n=8 per group in each test) for oral treatment once a day, at approximately same time each day (±1 hour), for 28 consecutive days: (1) vehicle control or (2) paraxanthine or (3) tyrosine or (4) tyrosine plus paraxanthine. The dose administered to the mice was calculated using US Food and Drug Administration for human equivalence doses (HED), assuming a human weight of 60 kg. […] Food intake was monitored daily while water intake was ad libitum.
The forelimb grip strength was measured on day 0 and day 28 by using a stainless-steel grill to assess muscle strength (Orchid Scientific & Innovative India Pvt Ltd, India). Grip strength was measured one hour after treatment. […]

| Compound | Duration of immobility (Swiss Albino mice [1]) [min] | Duration of mobility/active swimming (Swiss Albino mice [1]) [min] | Duration of mobility/active swimming (Swiss Albino mice [2]) [min] | Energy and mood (in words) (Swiss Albino mice [2]; force swim test on 28th day) | Escape latency (Swiss Albino mice [3]; oral once a day for 7 days) [s] | Effect on scopolamine-induced amnesia, memory and learning (in words) (Swiss Albino mice [3]; oral once a day for 7 days) | Escape latency, faster than control (Swiss Albino mice [3]) [%] | Forelimb grip strength (in words, FIG. 1) (Swiss Albino mice [4]) | Escape latency, slower than paraxanthine (Swiss Albino mice [3]; relative to paraxanthine group) [%] |
| --- | --- | --- | --- | --- | --- | --- | --- | --- | --- |
| Cn1c(=O)[nH]c2ncn(C)c2c1=O [paraxanthine] | 21.38 ± 1.92 | 8.63 ± 1.92 | 8.63 ± 1.92 | improved energy and mood | 16.38 ± 2.33 | reversal of amnesia induced by scopolamine and improved memory and learning | 46.3 | improved strength over control | – |
| NCCS(=O)(=O)O [taurine] | 21.50 ± 2.20 | 8.50 ± 2.20 | – | – | – | – | – | – | – |
| N[C@@H](Cc1ccc(O)cc1)C(=O)O [tyrosine] | – | – | 8.88 ± 1.46 | – | 8.25 ± 1.04 | – | 30.6 | improved strength at a lesser degree | 29.3 |
